In patent US6239171A, “Tocotrienols and tocotrienol-like compounds and methods for their use” (Lipogenics, Inc., priority 1998, dated 2001):

Columns and labels:
[1] = system: cholesterol 7α-hydroxylase; assay: Hepatic cholesterol 7α-hydroxylase activity in chickens fed supplemented diets; format: in vivo, chicken; settings: control diet + 50 ppm, 4 weeks
Description: This example measured the effects of the TRF and its components on the hepatic enzymatic activity of HMG-CoA reductase and cholesterol 7α-hydroxylase. […] The amount of feed consumed ranged from 11.19-11.60 g per chicken and the feeding period was 4 weeks. The birds were fasted for a period of 36 hours and refed for 48 hours prior to sacrifice (at 0800 hours).

chickens = assay: Plasma thromboxane B2 and platelet factor 4 in chickens fed supplemented diets; format: in vivo, chicken; settings: control diet + 50 ppm, 4 weeks
Description: We next measured the effects of TRF and its components on serum levels of apolipoprotein (a)1, apolipoprotein B, triglycerides and glucose and the plasma levels of thromboxane B2 and platelet factor 4.

[2] = system: hypercholesterolemic swine; assay: Serum cholesterol, apolipoproteins, triglycerides, glucose, insulin and glucagon in hypercholesterolemic swine; format: in vivo
Description: All assays conducted on chicken or swine serum were done following the protocols described in A. A. Qureshi et al., "Lowering Of Serum Cholesterol In Hypercholesterolemic Humans By Tocotrienols" (Palmvitee), Am. […] Plasma insulin, glucagon and TNF levels were measured using radioinnumoassay kits from Ventrex Laboratories, Inc. (Portland, Me.), ICN Biomedicals, Inc. (Costa Mesa, Calif.) and Genzyme Corp. (Cambridge, Mass.), respectively.
We next measured the effects of various tocotrienols from rice bran on HMG-CoA reductase and cholesterol 7α-hydroxylase in hypercholesterolemic swine. Since pigs are very similar to humans in their cholesterol metabolism, they provide a useful model from which to study hypercholesterolemia and related diseases. […] As a result, the pigs develop complicated atherosclerotic plaques that closely resemble advanced atherosclerotic lesions found in humans.
(§1) Each group of three 5-month old swine was administered either a control diet or a control diet supplemented with 50 ppm of TRF or 50 ppm of an individual tocotrienol. […] After a 12 hour fast, serum and plasma samples were taken a 0 hrs, 21 days and 42 days from the start of the feeding period. After taking serum and plasma samples from the pigs at the end of the 42 day period, all of the swine were fasted for a total of 40 hours, followed by a 48 hour refeeding period. One swine from each group was sacrificed at that time and the liver, intestine, lung, heart, loin muscle, adipose tissue and ham muscle were removed.
The experimental conditions were the same, except that the two remaining swine in each group were transferred to the unsupplemented control diet following the 42 day feeding period. After an additional 70 days, serum and plasma samples were collected from these swine after a 12 hour fast for testing.

[3] = system: hypercholesterolemic swine; assay: Total cholesterol, triglyceride and glucose concentrations in tissues of hypercholesterolemic swine; format: in vivo; settings: control diet + 50 ppm, 42 days
Description: as §1
We next determined the effect of tocotrienols on the total cholesterol, triglyceride and glucose concentrations in various tissues of hypercholesterolemic swine.

[4] = 70 days on control diet after 42 days at 50 ppm

CC(C)=CCC/C(C)=C/CC/C(C)=C/CCC1(C)CCc2cc(O)c(C)c(C)c2O1 (stereo not shown) [γ-T3, γ-tocotrienol, reference compound]
Cholesterol 7α-Hydroxylase, percentage of control [1]: 107.34% | Cholesterol 7α-hydroxylase [1]: 10.97 nmol/min/mg | Platelet Factor 4 (chickens): 8.36 ng/mL | Platelet Factor 4, percentage of control (chickens): 63.87% | Thromboxane B2 (chickens): 19.22 pg/mL | Thromboxane B2, percentage of control (chickens): 74.38% | HDL-CHOLESTEROL CONCENTRATION IN SERUM [2, 4]: 30.47 mg/100 ml | HDL-CHOLESTEROL, Percentage of Control Activity [2, 4]: 106.66% | HDL-CHOLESTEROL, percentage of baseline value [2, 4]: 139.39% | HDL:LDL CHOLESTEROL, Percentage of Control Activity [2, 4]: 84.52% | LDL-CHOLESTEROL CONCENTRATION IN SERUM [2, 4]: 224.66 mg/100 ml | LDL-CHOLESTEROL, Percentage of Control Activity [2, 4]: 88.61% | LDL-CHOLESTEROL, percentage of baseline value [2, 4]: 125.95% | TOTAL CHOLESTEROL CONCENTRATION IN SERUM [2, 4]: 271.70 mg/100 ml | TOTAL CHOLESTEROL, Percentage of Control Activity [2, 4]: 78.80% | TOTAL CHOLESTEROL, percentage of baseline value [2, 4]: 129.66% | Apo A1, percentage of control ([2]; control diet + 50 ppm, 6 weeks): 102.06% | Apo A1 concentration in serum ([2]; control diet + 50 ppm, 6 weeks): 26.22 ± 1.11 mg/100 ml | Apo B concentration in serum ([2]; control diet + 50 ppm, 6 weeks): 114.29 ± 1.79 mg/100 ml | Apo B, percentage of control ([2]; control diet + 50 ppm, 6 weeks): 77.34% | Triglycerides concentration in serum ([2]; control diet + 50 ppm, 6 weeks): 61.78 mg/100 ml | Triglycerides, percentage of control ([2]; control diet + 50 ppm, 6 weeks): 80.69% | HDL-CHOLESTEROL CONCENTRATION IN SERUM ([2]; control diet + 50 ppm, 21 days): 25.27 mg/100 ml | HDL-CHOLESTEROL, percentage of baseline value ([2]; control diet + 50 ppm, 21 days): 115.59% | HDL:LDL CHOLESTEROL, percentage of baseline value ([2]; control diet + 50 ppm, 21 days): 89.83% | LDL-CHOLESTEROL CONCENTRATION IN SERUM ([2]; control diet + 50 ppm, 21 days): 185.12 mg/100 ml | LDL-CHOLESTEROL, percentage of baseline value ([2]; control diet + 50 ppm, 21 days): 103.78% | TOTAL CHOLESTEROL CONCENTRATION IN SERUM ([2]; control diet + 50 ppm, 21 days): 225.20 mg/100 ml | TOTAL CHOLESTEROL, percentage of baseline value ([2]; control diet + 50 ppm, 21 days): 107.39% | Glucagon ([2]; control diet + 50 ppm, 42 days): 285.41 pg/mL | Glucagon, percentage of control ([2]; control diet + 50 ppm, 42 days): 86.38% | Glucose ([2]; control diet + 50 ppm, 42 days): 74.40 mg/100 ml | Glucose, percentage of control ([2]; control diet + 50 ppm, 42 days): 77.51% | HDL-CHOLESTEROL CONCENTRATION IN SERUM ([2]; control diet + 50 ppm, 42 days): 28.55 mg/100 ml | HDL-CHOLESTEROL, Percentage of Control Activity ([2]; control diet + 50 ppm, 42 days): 111.06% | HDL-CHOLESTEROL, percentage of baseline value ([2]; control diet + 50 ppm, 42 days): 130.60% | HDL:LDL CHOLESTEROL, Percentage of Control Activity ([2]; control diet + 50 ppm, 42 days): 60.58% | HDL:LDL CHOLESTEROL, percentage of baseline value ([2]; control diet + 50 ppm, 42 days): 82.84% | Insulin ([2]; control diet + 50 ppm, 42 days): 21.2 µU/mL | Insulin, percentage of control ([2]; control diet + 50 ppm, 42 days): 103.46% | LDL-CHOLESTEROL CONCENTRATION IN SERUM ([2]; control diet + 50 ppm, 42 days): 193.80 mg/100 ml | LDL-CHOLESTEROL, Percentage of Control Activity ([2]; control diet + 50 ppm, 42 days): 66.22% | LDL-CHOLESTEROL, percentage of baseline value ([2]; control diet + 50 ppm, 42 days): 108.65% | TOTAL CHOLESTEROL CONCENTRATION IN SERUM ([2]; control diet + 50 ppm, 42 days): 233.93 mg/100 ml | TOTAL CHOLESTEROL, Percentage of Control Activity ([2]; control diet + 50 ppm, 42 days): 71.00% | TOTAL CHOLESTEROL, percentage of baseline value ([2]; control diet + 50 ppm, 42 days): 111.76% | TOTAL CHOLESTEROL CONCENTRATION, Adipose Tissue [3]: 94.55 mg/100 gm | TOTAL CHOLESTEROL CONCENTRATION, Ham Muscle [3]: 85.15 mg/100 gm | TOTAL CHOLESTEROL CONCENTRATION, Heart [3]: 56.68 mg/100 gm | TOTAL CHOLESTEROL CONCENTRATION, Intestine [3]: 187.06 mg/100 gm | TOTAL CHOLESTEROL CONCENTRATION, Liver [3]: 149.20 mg/100 gm | TOTAL CHOLESTEROL CONCENTRATION, Loin Muscle [3]: 103.48 mg/100 gm | TOTAL CHOLESTEROL CONCENTRATION, Lung [3]: 83.79 mg/100 gm | TOTAL CHOLESTEROL, Adipose Tissue, percentage of control [3]: 86.43% | TOTAL CHOLESTEROL, Ham Muscle, percentage of control [3]: 85.15% | TOTAL CHOLESTEROL, Heart, percentage of control [3]: 87.86% | TOTAL CHOLESTEROL, Intestine, percentage of control [3]: 86.81% | TOTAL CHOLESTEROL, Liver, percentage of control [3]: 74.01% | TOTAL CHOLESTEROL, Loin Muscle, percentage of control [3]: 86.51% | TOTAL CHOLESTEROL, Lung, percentage of control [3]: 82.36% | TOTAL GLUCOSE CONCENTRATION, Adipose Tissue [3]: 15.93 mg/100 gm | TOTAL GLUCOSE CONCENTRATION, Ham Muscle [3]: 52.10 mg/100 gm | TOTAL GLUCOSE CONCENTRATION, Heart [3]: 46.81 mg/100 gm | TOTAL GLUCOSE CONCENTRATION, Intestine [3]: 62.50 mg/100 gm | TOTAL GLUCOSE CONCENTRATION, Liver [3]: 383.68 mg/100 gm | TOTAL GLUCOSE CONCENTRATION, Loin Muscle [3]: 60.30 mg/100 gm | TOTAL GLUCOSE CONCENTRATION, Lung [3]: 63.08 mg/100 gm | TOTAL GLUCOSE, Adipose Tissue, percentage of control [3]: 86.86% | TOTAL GLUCOSE, Ham Muscle, percentage of control [3]: 96.80% | TOTAL GLUCOSE, Heart, percentage of control [3]: 95.05% | TOTAL GLUCOSE, Intestine, percentage of control [3]: 86.84% | TOTAL GLUCOSE, Liver, percentage of control [3]: 94.53% | TOTAL GLUCOSE, Loin Muscle, percentage of control [3]: 84.64% | TOTAL GLUCOSE, Lung, percentage of control [3]: 94.25% | TOTAL TRIGLYCERIDES CONCENTRATION, Adipose Tissue [3]: 391.58 mg/100 gm | TOTAL TRIGLYCERIDES CONCENTRATION, Ham Muscle [3]: 181.99 mg/100 gm | TOTAL TRIGLYCERIDES CONCENTRATION, Heart [3]: 142.72 mg/100 gm | TOTAL TRIGLYCERIDES CONCENTRATION, Intestine [3]: 351.33 mg/100 gm | TOTAL TRIGLYCERIDES CONCENTRATION, Liver [3]: 397.51 mg/100 gm | TOTAL TRIGLYCERIDES CONCENTRATION, Loin Muscle [3]: 201.65 mg/100 gm | TOTAL TRIGLYCERIDES CONCENTRATION, Lung [3]: 167.18 mg/100 gm | TOTAL TRIGLYCERIDES, Adipose Tissue, percentage of control activity [3]: 89.88% | TOTAL TRIGLYCERIDES, Ham Muscle, percentage of control activity [3]: 97.93% | TOTAL TRIGLYCERIDES, Heart, percentage of control activity [3]: 98.96% | TOTAL TRIGLYCERIDES, Intestine, percentage of control activity [3]: 98.24% | TOTAL TRIGLYCERIDES, Liver, percentage of control activity [3]: 92.58% | TOTAL TRIGLYCERIDES, Loin Muscle, percentage of control activity [3]: 91.79% | TOTAL TRIGLYCERIDES, Lung, percentage of control activity [3]: 97.22%
